From PubChem BioAssay AID1963875 (Molecular Pharmacology Branch, DTP, NCI, 2024)

System: KRAS-mutant PDC complex spheroid viability
Assay: Anticancer human tumor 186277-243-T-J2-PDC patient-derived colon adenocarcinoma cell line growth inhibition [KRAS2]
Conditions: for IC50: curve of first compound; for viability, T/C: stronger effect = lower value
Procedure, shortened: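 Combination screen of spheroid viability in tumor-cell co-cultures with endothelial (HUVEC) and mesenchymal stem cell stroma. Each agent was tested in half-log dilutions, topping at clinical Cmax or at 10 microM without a known Cmax.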

[1] = second compound 0.1 µM, first compound 0.01 µM
[2] = second compound 0.1 µM, first compound 0.0316 µM
[3] = second compound 0.1 µM, first compound 0.1 µM
[4] = second compound 0.1 µM, first compound 0.316 µM
[5] = second compound 0.1 µM, first compound 1 µM
[6] = second compound 0.1 µM, first compound 3.16 µM
[7] = second compound 0.316 µM, first compound 0.01 µM
[8] = second compound 0.316 µM, first compound 0.0316 µM
[9] = second compound 0.316 µM, first compound 0.1 µM
[10] = second compound 0.316 µM, first compound 0.316 µM
[11] = second compound 0.316 µM, first compound 1 µM
[12] = second compound 0.316 µM, first compound 3.16 µM
[13] = second compound 1 µM, first compound 0.01 µM
[14] = second compound 1 µM, first compound 0.0316 µM
[15] = second compound 1 µM, first compound 0.1 µM
[16] = second compound 1 µM, first compound 0.316 µM
[17] = second compound 1 µM, first compound 1 µM
[18] = second compound 1 µM, first compound 3.16 µM
[19] = second compound 3.16 µM, first compound 0.01 µM
[20] = second compound 3.16 µM, first compound 0.0316 µM
[21] = second compound 3.16 µM, first compound 0.1 µM
[22] = second compound 3.16 µM, first compound 0.316 µM
[23] = second compound 3.16 µM, first compound 1 µM
[24] = second compound 3.16 µM, first compound 3.16 µM
[25] = second compound 10 µM, first compound 0.01 µM
[26] = second compound 10 µM, first compound 0.0316 µM
[27] = second compound 10 µM, first compound 0.1 µM
[28] = second compound 10 µM, first compound 0.316 µM
[29] = second compound 10 µM, first compound 1 µM
[30] = second compound 10 µM, first compound 3.16 µM
[31] = second compound 0.1 µM, first compound 10 µM
[32] = second compound 0.316 µM, first compound 10 µM
[33] = second compound 1 µM, first compound 10 µM
[34] = second compound 3.16 µM, first compound 10 µM
[35] = second compound 10 µM, first compound 10 µM
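Throughout, for viability, T/C: viability read after seven days of compound exposure; 100% = DMSO vehicle-treated spheroids so lower means less viable.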

## CC1COCCN1c1cc(-c2ccnn2C)c2ccnc(-c3ccn[nH]3)c2n1 (stereo not given) + CNCc1ccccc1-c1csc(C(C)Nc2nc(C)nc3cc(OC)c(OC)cc23)c1
Second compound 0.1 µM
  IC50: 20 nM
Second compound 0.316 µM
  IC50: 21.2 nM
Second compound 1 µM
  IC50: 19.6 nM
Second compound 3.16 µM
  IC50: < 10 nM
Second compound 10 µM
  IC50: < 10 nM
[1]
  viability, T/C: 97.7%
[2]
  viability, T/C: 18.4%
[3]
  viability, T/C: 5.46%
[4]
  viability, T/C: 3.99%
[5]
  viability, T/C: 3.43%
[6]
  viability, T/C: 4.08%
[7]
  viability, T/C: 98.4%
[8]
  viability, T/C: 24.2%
[9]
  viability, T/C: 8.14%
[10]
  viability, T/C: 3.97%
[11]
  viability, T/C: 3.29%
[12]
  viability, T/C: 4.28%
[13]
  viability, T/C: 98.9%
[14]
  viability, T/C: 15.5%
[15]
  viability, T/C: 4.99%
[16]
  viability, T/C: 3.97%
[17]
  viability, T/C: 3.82%
[18]
  viability, T/C: 4.51%
[19]
  viability, T/C: 23.7%
[20]
  viability, T/C: 1.99%
[21]
  viability, T/C: 0.3%
[22]
  viability, T/C: 0.17%
[23]
  viability, T/C: 0.22%
[24]
  viability, T/C: 0.31%
[25]
  viability, T/C: 0.13%
[26]
  viability, T/C: 0.1%
[27]
  viability, T/C: 0.09%
[28]
  viability, T/C: 0.09%
[29]
  viability, T/C: 0.1%
[30]
  viability, T/C: 0.15%

## CC1OCC2(CCN(c3cnc(Sc4ccnc(N)c4Cl)c(N)n3)CC2)C1N (stereo not given) + CNCc1ccccc1-c1csc(C(C)Nc2nc(C)nc3cc(OC)c(OC)cc23)c1
Second compound 0.1 µM
  IC50: > 10000 nM
Second compound 0.316 µM
  IC50: > 10000 nM
Second compound 1 µM
  IC50: > 10000 nM
Second compound 3.16 µM
  IC50: 1520 nM
Second compound 10 µM
  IC50: < 31.6 nM
[2]
  viability, T/C: 96.1%
[3]
  viability, T/C: 104%
[4]
  viability, T/C: 104%
[5]
  viability, T/C: 90.9%
[6]
  viability, T/C: 107%
[31]
  viability, T/C: 105%
[8]
  viability, T/C: 103%
[9]
  viability, T/C: 99.8%
[10]
  viability, T/C: 111%
[11]
  viability, T/C: 108%
[12]
  viability, T/C: 104%
[32]
  viability, T/C: 84.2%
[14]
  viability, T/C: 91.2%
[15]
  viability, T/C: 104%
[16]
  viability, T/C: 95%
[17]
  viability, T/C: 105%
[18]
  viability, T/C: 93.2%
[33]
  viability, T/C: 60.5%
[20]
  viability, T/C: 85.2%
[21]
  viability, T/C: 72.8%
[22]
  viability, T/C: 102%
[23]
  viability, T/C: 71.4%
[24]
  viability, T/C: 11.4%
[34]
  viability, T/C: 1.07%
[26]
  viability, T/C: 0.18%
[27]
  viability, T/C: 0.18%
[28]
  viability, T/C: 0.17%
[29]
  viability, T/C: 0.15%
[30]
  viability, T/C: 0.12%
[35]
  viability, T/C: 0.15%

## Cn1nccc1Nc1nccc(-c2cc3c(s2)C(C)(C)N(CCN2CCOCC2)C3=O)n1 + CNCc1ccccc1-c1csc(C(C)Nc2nc(C)nc3cc(OC)c(OC)cc23)c1
Second compound 0.1 µM
  IC50: 293 nM
Second compound 0.316 µM
  IC50: 304 nM
Second compound 1 µM
  IC50: 205 nM
Second compound 3.16 µM
  IC50: 91.7 nM
Second compound 10 µM
  IC50: < 31.6 nM
[2]
  viability, T/C: 99.2%
[3]
  viability, T/C: 98.3%
[4]
  viability, T/C: 46.1%
[5]
  viability, T/C: 13.5%
[6]
  viability, T/C: 7.74%
[31]
  viability, T/C: 6.21%
[8]
  viability, T/C: 94.4%
[9]
  viability, T/C: 97.3%
[10]
  viability, T/C: 48.2%
[11]
  viability, T/C: 9.73%
[12]
  viability, T/C: 4.43%
[32]
  viability, T/C: 7.35%
[14]
  viability, T/C: 92%
[15]
  viability, T/C: 105%
[16]
  viability, T/C: 20.6%
[17]
  viability, T/C: 4.12%
[18]
  viability, T/C: 1.64%
[33]
  viability, T/C: 2.61%
[20]
  viability, T/C: 81.7%
[21]
  viability, T/C: 47.4%
[22]
  viability, T/C: 1.6%
[23]
  viability, T/C: 1.86%
[24]
  viability, T/C: 0.22%
[34]
  viability, T/C: 0.1%
[26]
  viability, T/C: 0.17%
[27]
  viability, T/C: 0.15%
[28]
  viability, T/C: 0.1%
[29]
  viability, T/C: 0.09%
[30]
  viability, T/C: 0.09%
[35]
  viability, T/C: 0.16%

## CC(=O)OC12COC1CC(O)C1(C)C(=O)C(O)C3=C(C)C(OC(=O)C(O)C(NC(=O)OC(C)(C)C)c4ccccc4)CC(O)(C(OC(=O)c4ccccc4)C21)C3(C)C (stereo not given) + COc1cc2nc(C)nc(NC(C)c3cc(N)cc(C(F)(F)F)c3)c2cc1OC1CCOC1
Second compound 0.1 µM
  IC50: < 10 nM
Second compound 0.316 µM
  IC50: < 10 nM
Second compound 1 µM
  IC50: < 10 nM
Second compound 3.16 µM
  IC50: < 10 nM
Second compound 10 µM
  IC50: < 10 nM
[1]
  viability, T/C: 4.45%
[2]
  viability, T/C: 5.2%
[3]
  viability, T/C: 2.78%
[4]
  viability, T/C: 2.85%
[5]
  viability, T/C: 2.91%
[6]
  viability, T/C: 3.62%
[7]
  viability, T/C: 4.29%
[8]
  viability, T/C: 3.35%
[9]
  viability, T/C: 2.81%
[10]
  viability, T/C: 2.36%
[11]
  viability, T/C: 2.72%
[12]
  viability, T/C: 2.69%
[13]
  viability, T/C: 3.08%
[14]
  viability, T/C: 4.27%
[15]
  viability, T/C: 3.44%
[16]
  viability, T/C: 3.47%
[17]
  viability, T/C: 3.46%
[18]
  viability, T/C: 2.96%
[19]
  viability, T/C: 3.01%
[20]
  viability, T/C: 2.78%
[21]
  viability, T/C: 2.73%
[22]
  viability, T/C: 2.51%
[23]
  viability, T/C: 2.54%
[24]
  viability, T/C: 2.73%
[25]
  viability, T/C: 3.2%
[26]
  viability, T/C: 3.03%
[27]
  viability, T/C: 2.84%
[28]
  viability, T/C: 3%
[29]
  viability, T/C: 2.42%
[30]
  viability, T/C: 2.82%

## CN(C)C/C=C/C(=O)Nc1cc2c(Nc3ccc(F)c(Cl)c3)ncnc2cc1O[C@H]1CCOC1 + COc1cc2nc(C)nc(NC(C)c3cc(N)cc(C(F)(F)F)c3)c2cc1OC1CCOC1
Second compound 0.1 µM
  IC50: > 100 nM
Second compound 0.316 µM
  IC50: > 100 nM
Second compound 1 µM
  IC50: > 100 nM
Second compound 3.16 µM
  IC50: > 100 nM
Second compound 10 µM
  IC50: > 100 nM
Second compound 0.1 µM, first compound 0.000316 µM
  viability, T/C: 102%
Second compound 0.1 µM, first compound 0.001 µM
  viability, T/C: 107%
Second compound 0.1 µM, first compound 0.00316 µM
  viability, T/C: 112%
[1]
  viability, T/C: 110%
[2]
  viability, T/C: 108%
[3]
  viability, T/C: 96.8%
Second compound 0.316 µM, first compound 0.000316 µM
  viability, T/C: 94.3%
Second compound 0.316 µM, first compound 0.001 µM
  viability, T/C: 105%
Second compound 0.316 µM, first compound 0.00316 µM
  viability, T/C: 106%
[7]
  viability, T/C: 115%
[8]
  viability, T/C: 99.2%
[9]
  viability, T/C: 89.2%
Second compound 1 µM, first compound 0.000316 µM
  viability, T/C: 96.7%
Second compound 1 µM, first compound 0.001 µM
  viability, T/C: 93.8%
Second compound 1 µM, first compound 0.00316 µM
  viability, T/C: 91%
[13]
  viability, T/C: 105%
[14]
  viability, T/C: 113%
[15]
  viability, T/C: 105%
Second compound 3.16 µM, first compound 0.000316 µM
  viability, T/C: 93.4%
Second compound 3.16 µM, first compound 0.001 µM
  viability, T/C: 97.9%
Second compound 3.16 µM, first compound 0.00316 µM
  viability, T/C: 97.4%
[19]
  viability, T/C: 100%
[20]
  viability, T/C: 84.4%
[21]
  viability, T/C: 79.3%
Second compound 10 µM, first compound 0.000316 µM
  viability, T/C: 109%
Second compound 10 µM, first compound 0.001 µM
  viability, T/C: 105%
Second compound 10 µM, first compound 0.00316 µM
  viability, T/C: 114%
[25]
  viability, T/C: 91.2%
[26]
  viability, T/C: 81.4%
[27]
  viability, T/C: 61.4%

## O=C(c1cc(Cc2n[nH]c(=O)c3ccccc23)ccc1F)N1CCN(C(=O)C2CC2)CC1 + COc1cc2nc(C)nc(NC(C)c3cc(N)cc(C(F)(F)F)c3)c2cc1OC1CCOC1
Second compound 0.1 µM
  IC50: 8250 nM
Second compound 0.316 µM
  IC50: 5900 nM
Second compound 1 µM
  IC50: 8780 nM
Second compound 3.16 µM
  IC50: 4490 nM
Second compound 10 µM
  IC50: 872 nM
[2]
  viability, T/C: 107%
[3]
  viability, T/C: 105%
[4]
  viability, T/C: 114%
[5]
  viability, T/C: 116%
[6]
  viability, T/C: 99.1%
[31]
  viability, T/C: 40.1%
[8]
  viability, T/C: 105%
[9]
  viability, T/C: 102%
[10]
  viability, T/C: 107%
[11]
  viability, T/C: 116%
[12]
  viability, T/C: 67.9%
[32]
  viability, T/C: 34.8%
[14]
  viability, T/C: 111%
[15]
  viability, T/C: 104%
[16]
  viability, T/C: 107%
[17]
  viability, T/C: 122%
[18]
  viability, T/C: 88.2%
[33]
  viability, T/C: 45.1%
[20]
  viability, T/C: 109%
[21]
  viability, T/C: 98.3%
[22]
  viability, T/C: 109%
[23]
  viability, T/C: 110%
[24]
  viability, T/C: 61%
[34]
  viability, T/C: 25.1%
[26]
  viability, T/C: 102%
[27]
  viability, T/C: 101%
[28]
  viability, T/C: 81.3%
[29]
  viability, T/C: 48.4%
[30]
  viability, T/C: 11.5%
[35]
  viability, T/C: 10.1%
